According to patent US20240051942A1, “SOLID FORM OF COMPOUND” (INXMED (NANJING) CO., LTD., priority 2020, published 2024):
Converted amounts (≈) assume the structure as drawn. Where a name gives a salt, the structure may show the parent alone.

Assays:
Assay type in all cases: physicochemical
[1] = Suspension competitive crystal transformation test of crystalline forms I and III of the tartrate salt (XRPD); settings: for Crystalline form after suspension competition: 24 h
Experimental: Crystalline form I and crystalline form III (each 20 mg) were weighed and added into a 2 mL or 10 mL glass bottle, and 0.5 mL or 1 mL of organic solvent was added, respectively, according to the solubility. Two batches were prepared with the same solvent, and placed respectively at room temperature and 50° C. for suspension competition for 24 h. The suspension was centrifuged (10000 rpm, 3 min). The obtained solid powder was then vacuum-dried and tested for XRPD (See FIGS. 30 and 31 for details).

[2] = Solubility test (shaker 25° C., 24 hours, filtrate by HPLC); settings: for solubility at 24 h: 25 °C, thermodynamic from solid
Experimental: (§1) A certain amount of crystalline form A of free base of the compound of formula (I), crystalline form I of the tartrate salt, and crystalline form III of the tartrate salt were weighed and placed in a 5 mL sample bottle. Deionized water, pH 2.0 glycine-hydrochloric acid buffer solution, pH 4.5 Na2HPO4-citric acid buffer solution, and pH 6.8 Na2HPO4-citric acid buffer solution were added respectively (each 2 mL). The mixture was placed on a shaker at 25° C., shaken for 24 hours, and then filtered. The filtrate was tested for solubility by HPLC; and the solid was detected by XRPD to determine whether the crystalline form was transformed.
The chromatographic conditions were as follows: • Chromatographic column: Unitary C18 (5 μm, 100 A, 4.6×250 mm) • Mobile phase: Phase A was ammonium acetate with pH of 6.2, and phase B was acetonitrile, A: B=10:90. • Detection wavelength: 230 nm, Column temperature: 35° C. • Injection volume: 20 μL

[3] = XRPD of the solid after the solubility test (crystal transformation)
Experimental: as §1

[4] = Accelerated stability test: influence factor test and accelerated test, solid XRPD; settings: for Stability of crystalline form, summary in words: high temperature, high humidity, strong light and accelerated test conditions
Experimental: According to the stability test requirements for the raw drug in the fourth part of the 2015 edition of the “Chinese Pharmacopoeia”, “Guiding Principles for the Stability Test of Raw Drugs and Preparations”, the influence factor test and the accelerated test were investigated on crystalline form.
High temperature test (T): The powder was placed in a suitable sealed glass bottle, and placed at 60° C. for 10 days. Samples were taken on the 5th and 10th day to detect the solid XRPD.
High humidity test (H): The powder was placed in an open constant temperature and humidity box, and placed at 25° C., 90%±5% RH for 10 days. Samples were taken on the 5th and 10th day and the solid XRPD was detected so as to investigate the moisture absorption and deliquescence performances.
Strong light irradiation test (L): The powder was placed in an open box equipped with a fluorescent lamp, and placed under the condition of an illumination of 4500±5001x for 10 days. Samples were taken on the 5th and 10th day to detect the solid XRPD.
Accelerated test (A): The powder was placed in an open constant temperature and humidity box, and placed at 40° C., 75%±5% RH for 10 days. Samples were taken on the 5th and 10th day to detect the solid XRPD.

[5] = Stability under pressure condition (powder tablet press, XRPD); settings: mechanical pressures of 2, 4, 6, 8, and 10 N, 5 minutes
Experimental: An appropriate amount of powders of crystalline form A of the free base, crystalline form I of the tartrate salt, and crystalline form III of the tartrate salt were weighed and evenly spread on the bottom of the mold of a powder tablet press. To simulate the pressure conditions in a formulation process, mechanical pressures of 2, 4, 6, 8, and 10 N were applied respectively. The pressure was kept stable for 5 minutes, and then samples were taken for XRPD to investigate the stability of the crystalline form under pressure conditions. For details of patterns, see FIGS. 24-26.

[6] = Stability under grinding condition (ball mill, XRPD); settings: automatic ball mill, grinding 5, 10, 15, and 30 min
Experimental: An appropriate amount of powders of crystalline form A of the free base, crystalline form I of the tartrate salt and crystalline form III of the tartrate salt were weighed and evenly spread in an agate mortar. Agate beads were added. To simulate the grinding conditions in a formulation process, the vibration frequency of the automatic ball mill was set at 25S-1, and the grinding was carried out for 5, 10, 15, and 30 min, respectively. Then samples were taken for XRPD to investigate the stability of the crystalline form under grinding conditions. For details of patterns, see FIGS. 27-29.

[7] = Water adsorption and desorption test (DVS); settings: for Moisture absorption: 25° C.
Experimental: • 4. Gravimetric Dynamic Vapor Sorption Isotherm Plot (DVS)
Dynamic water adsorption instrument (DVS) was used to investigate the adsorption and desorption test of crystalline forms I and III of the tartrate salt at 25° C. in the range of 0-95% relative humidity, so as to determine hygroscopicity of various crystalline forms (For details, see FIGS. 4d and 5d).

[8] = Deionized water, 25° C., 24 hours
[9] = pH 6.8 Na2HPO4-citric acid buffer solution, 25° C., 24 hours
[10] = pH 2.0 glycine-hydrochloric acid buffer solution, 25° C., 24 hours
[11] = pH 4.5 Na2HPO4-citric acid buffer solution, 25° C., 24 hours
[12] = pH 6.8 buffered saline solution
[13] = solid after solubility test in deionized water
[14] = Accelerated (40° C./75%), 5 days
[15] = Accelerated (40° C./75%), 10 days
[16] = High humidity (92.5% RH), 25° C., 5 days
[17] = High humidity (92.5% RH), 25° C., 10 days
[18] = High temperature (60° C.), 5 days
[19] = High temperature (60° C.), 10 days
[20] = Strong light (4500 lx), 10 days

Structure (SMILES) | Solubility [2, 8] | Solubility [2, 9] | Solubility [2, 10] | Solubility [2, 11] | Solubility compared with the amorphous form of the free base [2, 12] | Crystal transformation as detected by XRPD [3, 13] | Stability of crystalline form (XRPD) [4, 14] | Stability of crystalline form (XRPD) [4, 15] | Stability of crystalline form (XRPD) [4, 16] | Stability of crystalline form (XRPD) [4, 17] | Stability of crystalline form (XRPD) [4, 18] | Stability of crystalline form (XRPD) [4, 19] | Stability of crystalline form (XRPD) ([4]; Strong light (4500 lx), 5 days) | Stability of crystalline form (XRPD) [4, 20] | Stability of crystalline form, summary in words [4] | Stability of the crystalline form under pressure conditions (XRPD) [5] | Stability of the crystalline form under grinding conditions (XRPD) [6] | Moisture absorption ([7]; from 90% to 95% RH) | Moisture absorption ([7]; humidity range of 40-80% RH) | other results
COc1cc(C(=O)NC2CCN(C)CC2)c(F)cc1Nc1ncc(C(F)(F)F)c(Oc2cccc3c2C(=O)N(C)C3)n1 | – | – | – | – | – | – | – | – | – | – | – | – | – | – | – | – | – | – | – | Crystalline form after suspension competition ([1]; Cyclohexane, 50° C.): Mixture; Crystalline form after suspension competition ([1]; Cyclohexane, room temperature): Mixture; Crystalline form after suspension competition ([1]; Methyl tert-butyl ether, 50° C.): Mixture; Crystalline form after suspension competition ([1]; Methyl tert-butyl ether, room temperature): Mixture
COc1cc(C(=O)NC2CCN(C)CC2)c(F)cc1Nc1ncc(C(F)(F)F)c(Oc2cccc3c2C(=O)N(C)C3)n1 [Amorphous form of the free base] | 1070 µg/mL (≈ 1.82 mM) | 50 µg/mL (≈ 0.085 mM) | – | – | – | – | – | – | – | – | – | – | – | – | – | – | – | – | – | solubility at 24 h ([2]; Na2HPO4-citric acid buffer, pH 4.5, aqueous buffer, pH 4.5 Na2HPO4-citric acid buffer solution, 24 hours): 8500 µg/mL (≈ 14.4 mM); solubility at 24 h ([2]; glycine-hydrochloric acid buffer, pH 2, aqueous buffer, pH 2.0 glycine-hydrochloric acid buffer solution, 24 hours): > 10000 µg/mL
COc1cc(C(=O)NC2CCN(C)CC2)c(F)cc1Nc1ncc(C(F)(F)F)c(Oc2cccc3c2C(=O)N(C)C3)n1 [Crystalline form A of the free base] | 33 µg/mL (≈ 0.0561 mM) | 1060 µg/mL (≈ 1.8 mM) | >10000 µg/mL | >10000 µg/mL | significantly improved | no crystal transformation | Consistent | Consistent | Consistent | Consistent | Consistent | Consistent | Consistent | Consistent | stable under above test conditions without crystal transformation | stable | become amorphous | – | – | Crystal transformation as detected by XRPD ([3]; solid after solubility test in pH 6.8 buffered saline solution): no crystal transformation
COc1cc(C(=O)NC2CCN(C)CC2)c(F)cc1Nc1ncc(C(F)(F)F)c(Oc2cccc3c2C(=O)N(C)C3)n1 [Crystalline form I of the tartrate salt] | 2590 µg/mL | >10000 µg/mL | >10000 µg/mL | 5200 µg/mL | significantly improved | no crystal transformation | Consistent | Consistent | Consistent | Consistent | Consistent | Consistent | Consistent | Consistent | stable under above test conditions without crystal transformation | stable | only reduced in the degree of crystallinity | 0.08% | 0.33% | Solubility compared with the amorphous form of the free base ([2]; deionized water): significantly improved; Weight gain (DVS) ([7]; increase in relative humidity from about 0 to about 95%): about 1%; Relative stability of the crystalline form in suspension competition ([1]; conventional solvents except methyl tert-butyl ether and cyclohexane, room temperature and 50° C.): stable crystalline form
COc1cc(C(=O)NC2CCN(C)CC2)c(F)cc1Nc1ncc(C(F)(F)F)c(Oc2cccc3c2C(=O)N(C)C3)n1 [Crystalline form III of the tartrate salt] | >10000 µg/mL | >10000 µg/mL | >10000 µg/mL | >10000 µg/mL | – | – | Consistent | Consistent | Consistent | Consistent, | Consistent | Consistent | Consistent | Consistent | stable under above test conditions without crystal transformation | stable | become amorphous | 18.1% | 0.37% | Solubility ([2]; all the solvent systems): very good solubility; Crystallinity ([4]; high-humidity environment): reduced
